# Results: ChEMBL document CHEMBL3616471, “Synthesis and in vitro antitumor evaluation of betulin acid ester derivatives as novel apoptosis inducers” (Eur J Med Chem, 2015)
# Active and inactive are the calls of the source. No cut-off for these calls is given here.
# Columns and labels:
# MCF7 [1] = assay: Cytotoxicity against human MCF7 cells after 72 hrs by MTT assay; type: functional, cell-based; settings: MCF7, 72 h
# [2] = Cytotoxicity against mouse NIH/3T3 cells after 72 hrs by MTT assay; type: cell-based; settings: nih3t3, 72 h
# MCF7 [3] = assay: Selectivity index, ratio of IC50 for mouse NIH/3T3 cells to IC50 for human MCF7 cells; type: functional
# Bcap37 [4] = assay: Selectivity index, ratio of IC50 for mouse NIH/3T3 cells to IC50 for human Bcap37 cells; type: functional
# A-375 [5] = assay: Selectivity index, ratio of IC50 for mouse NIH/3T3 cells to IC50 for human A375 cells; type: functional
# A-375 [6] = assay: Cytotoxicity against human A375 cells after 72 hrs by MTT assay; type: functional, cell-based; settings: A-375, 72 h
# MGC-803 [7] = assay: Selectivity index, ratio of IC50 for mouse NIH/3T3 cells to IC50 for human MGC803 cells; type: functional
# PC-3 [8] = assay: Cytotoxicity against human PC3 cells after 72 hrs by MTT assay; type: functional, cell-based; settings: PC-3, 72 h
# PC-3 [9] = assay: Selectivity index, ratio of IC50 for mouse NIH/3T3 cells to IC50 for human PC3 cells; type: functional
# Bcap37 [10] = assay: Cytotoxicity against human Bcap37 cells after 72 hrs by MTT assay; type: functional, cell-based; settings: Bcap37, 72 h
# MGC-803 [11] = assay: Cytotoxicity against human MGC803 cells after 72 hrs by MTT assay; type: functional, cell-based; settings: MGC-803, 72 h
# MGC-803 [12] = assay: Induction of apoptosis in human MGC803 cells assessed as compact and condensed chromatin at 10 uM after 48 hrs using Hoechst 33258 staining by fluorescence microscopic analysis; type: functional, cell-based
# MGC-803 [13] = assay: Induction of apoptosis in human MGC803 cells assessed as formation of nicks in DNA at 10 uM after 48 hrs by TUNNEL assay; type: functional, cell-based
structure (smiles),measurement,setting,value
C=C(C)[C@@H]1CC[C@]2(COC(=O)CCC(=O)N3CCCC3)CC[C@]3(C)[C@H](CC[C@@H]4[C@@]5(C)CC[C@H](O)C(C)(C)[C@@H]5CC[C@]43C)[C@@H]12,IC50,MCF7 [1],10.1 µM
same,Activity,[2],Non-toxic
same,Ratio IC50,MCF7 [3],4.38
same,Ratio IC50,Bcap37 [4],5.6
same,Ratio IC50,A-375 [5],3.52
same,IC50,A-375 [6],12.6 µM
same,Ratio IC50,MGC-803 [7],4.97
same,IC50,PC-3 [8],8.3 µM
same,Ratio IC50,PC-3 [9],5.33
same,IC50,Bcap37 [10],7.9 µM
same,IC50,MGC-803 [11],8.9 µM
C=C(C)[C@@H]1CC[C@]2(COC(=O)c3ccc(F)cc3)CC[C@]3(C)[C@H](CC[C@@H]4[C@@]5(C)CC[C@H](O)C(C)(C)[C@@H]5CC[C@]43C)[C@@H]12,IC50,MCF7 [1],> 100 µM
same,IC50,A-375 [6],> 100 µM
same,IC50,PC-3 [8],> 100 µM
same,IC50,Bcap37 [10],> 100 µM
same,IC50,MGC-803 [11],> 100 µM
C=C(C)[C@@H]1CC[C@]2(COC(=O)Cc3ccc(Cl)cc3)CC[C@]3(C)[C@H](CC[C@@H]4[C@@]5(C)CC[C@H](O)C(C)(C)[C@@H]5CC[C@]43C)[C@@H]12,IC50,MCF7 [1],> 100 µM
same,IC50,A-375 [6],> 100 µM
same,IC50,PC-3 [8],> 100 µM
same,IC50,Bcap37 [10],> 100 µM
same,IC50,MGC-803 [11],> 100 µM
C=C(C)[C@@H]1CC[C@]2(CO)CC[C@]3(C)[C@H](CC[C@@H]4[C@@]5(C)CC[C@H](O)C(C)(C)[C@@H]5CC[C@]43C)[C@@H]12 [BETULIN],IC50,MCF7 [1],19.3 µM
same,IC50,A-375 [6],28 µM
same,IC50,PC-3 [8],22.4 µM
same,IC50,Bcap37 [10],25.5 µM
same,IC50,MGC-803 [11],30.2 µM
C=C(C)[C@@H]1CC[C@]2(COC(=O)c3ccccc3C(F)(F)F)CC[C@]3(C)[C@H](CC[C@@H]4[C@@]5(C)CC[C@H](OC(=O)c6ccccc6C(F)(F)F)C(C)(C)[C@@H]5CC[C@]43C)[C@@H]12,IC50,MCF7 [1],> 100 µM
same,IC50,A-375 [6],> 100 µM
same,IC50,PC-3 [8],> 100 µM
same,IC50,Bcap37 [10],> 100 µM
same,IC50,MGC-803 [11],> 100 µM
C=C(C)[C@@H]1CC[C@]2(COC(=O)CCC(=O)N(CC)CC)CC[C@]3(C)[C@H](CC[C@@H]4[C@@]5(C)CC[C@H](O)C(C)(C)[C@@H]5CC[C@]43C)[C@@H]12,IC50,MCF7 [1],9.2 µM
same,Activity,[2],Non-toxic
same,Ratio IC50,MCF7 [3],6.73
same,Ratio IC50,Bcap37 [4],9.25
same,Ratio IC50,A-375 [5],6.01
same,IC50,A-375 [6],10.3 µM
same,Ratio IC50,MGC-803 [7],7.29
same,IC50,PC-3 [8],9.6 µM
same,Ratio IC50,PC-3 [9],6.45
same,IC50,Bcap37 [10],6.7 µM
same,IC50,MGC-803 [11],8.5 µM
C=C(C)[C@@H]1CC[C@]2(COC(=O)c3ccccc3)CC[C@]3(C)[C@H](CC[C@@H]4[C@@]5(C)CC[C@H](O)C(C)(C)[C@@H]5CC[C@]43C)[C@@H]12,IC50,MCF7 [1],> 100 µM
same,IC50,A-375 [6],> 100 µM
same,IC50,PC-3 [8],> 100 µM
same,IC50,Bcap37 [10],> 100 µM
same,IC50,MGC-803 [11],> 100 µM
C=C(C)[C@@H]1CC[C@]2(COC(=O)c3ccccc3C(F)(F)F)CC[C@]3(C)[C@H](CC[C@@H]4[C@@]5(C)CC[C@H](O)C(C)(C)[C@@H]5CC[C@]43C)[C@@H]12,IC50,MCF7 [1],> 100 µM
same,IC50,A-375 [6],> 100 µM
same,IC50,PC-3 [8],> 100 µM
same,IC50,Bcap37 [10],> 100 µM
same,IC50,MGC-803 [11],> 100 µM
C=C(C)[C@@H]1CC[C@]2(COC(=O)CCC(=O)N3CCOCC3)CC[C@]3(C)[C@H](CC[C@@H]4[C@@]5(C)CC[C@H](O)C(C)(C)[C@@H]5CC[C@]43C)[C@@H]12,IC50,MCF7 [1],11.5 µM
same,Activity,[2],Non-toxic
same,Ratio IC50,MCF7 [3],4.99
same,Ratio IC50,Bcap37 [4],8.97
same,Ratio IC50,A-375 [5],3.1
same,IC50,A-375 [6],18.5 µM
same,Ratio IC50,MGC-803 [7],6.23
same,IC50,PC-3 [8],11.2 µM
same,Ratio IC50,PC-3 [9],5.12
same,IC50,Bcap37 [10],6.4 µM
same,IC50,MGC-803 [11],9.2 µM
CC[C@@]1(O)C(=O)OCc2c1cc1n(c2=O)Cc2cc3cc(O)ccc3nc2-1,Activity,MGC-803 [12],Active
same,Activity,MGC-803 [13],Active
C=C(C)[C@@H]1CC[C@]2(COC(=O)c3cccc([N+](=O)[O-])c3)CC[C@]3(C)[C@H](CC[C@@H]4[C@@]5(C)CC[C@H](OC(=O)c6cccc([N+](=O)[O-])c6)C(C)(C)[C@@H]5CC[C@]43C)[C@@H]12,IC50,MCF7 [1],> 100 µM
same,IC50,A-375 [6],> 100 µM
same,IC50,PC-3 [8],> 100 µM
same,IC50,Bcap37 [10],> 100 µM
same,IC50,MGC-803 [11],> 100 µM
C=C(C)[C@@H]1CC[C@]2(COC(=O)/C=C/c3ccccc3)CC[C@]3(C)[C@H](CC[C@@H]4[C@@]5(C)CC[C@H](O)C(C)(C)[C@@H]5CC[C@]43C)[C@@H]12,IC50,MCF7 [1],> 100 µM
same,IC50,A-375 [6],> 100 µM
same,IC50,PC-3 [8],> 100 µM
same,IC50,Bcap37 [10],> 100 µM
same,IC50,MGC-803 [11],> 100 µM
C=C(C)[C@@H]1CC[C@]2(COC(=O)c3cccc(Cl)c3)CC[C@]3(C)[C@H](CC[C@@H]4[C@@]5(C)CC[C@H](O)C(C)(C)[C@@H]5CC[C@]43C)[C@@H]12,IC50,MCF7 [1],> 100 µM
same,IC50,A-375 [6],> 100 µM
same,IC50,PC-3 [8],> 100 µM
same,IC50,Bcap37 [10],> 100 µM
same,IC50,MGC-803 [11],> 100 µM
C=C(C)[C@@H]1CC[C@]2(COC(=O)c3ccccc3C)CC[C@]3(C)[C@H](CC[C@@H]4[C@@]5(C)CC[C@H](O)C(C)(C)[C@@H]5CC[C@]43C)[C@@H]12,IC50,MCF7 [1],> 100 µM
same,IC50,A-375 [6],> 100 µM
same,IC50,PC-3 [8],> 100 µM
same,IC50,Bcap37 [10],> 100 µM
same,IC50,MGC-803 [11],> 100 µM
C=C(C)[C@@H]1CC[C@]2(COC(=O)/C=C/C(=O)N3CCCCC3)CC[C@]3(C)[C@H](CC[C@@H]4[C@@]5(C)CC[C@H](O)C(C)(C)[C@@H]5CC[C@]43C)[C@@H]12,IC50,MCF7 [1],6.3 µM
same,Activity,[2],Toxic
same,Ratio IC50,MCF7 [3],>3
same,Ratio IC50,Bcap37 [4],>3
same,Ratio IC50,A-375 [5],>3
same,IC50,A-375 [6],14.4 µM
same,Ratio IC50,MGC-803 [7],>3
same,IC50,PC-3 [8],9.6 µM
same,Ratio IC50,PC-3 [9],>3
same,IC50,Bcap37 [10],7.4 µM
same,IC50,MGC-803 [11],5.3 µM
C=C(C)[C@@H]1CC[C@]2(COC(=O)/C=C/C(=O)O)CC[C@]3(C)[C@H](CC[C@@H]4[C@@]5(C)CC[C@H](O)C(C)(C)[C@@H]5CC[C@]43C)[C@@H]12,IC50,MCF7 [1],17.1 µM
same,Activity,[2],Toxic
same,Ratio IC50,MCF7 [3],>3
same,Ratio IC50,Bcap37 [4],>3
same,Ratio IC50,A-375 [5],>3
same,IC50,A-375 [6],23.2 µM
same,Ratio IC50,MGC-803 [7],>3
same,IC50,PC-3 [8],25.8 µM
same,Ratio IC50,PC-3 [9],>3
same,IC50,Bcap37 [10],18.3 µM
same,IC50,MGC-803 [11],21.3 µM
C=C(C)[C@@H]1CC[C@]2(COC(=O)CCC(=O)O)CC[C@]3(C)[C@H](CC[C@@H]4[C@@]5(C)CC[C@H](O)C(C)(C)[C@@H]5CC[C@]43C)[C@@H]12,IC50,MCF7 [1],14.5 µM
same,Activity,[2],Non-toxic
same,Ratio IC50,MCF7 [3],5.02
same,Ratio IC50,Bcap37 [4],4.64
same,Ratio IC50,A-375 [5],4.07
same,IC50,A-375 [6],17.9 µM
same,Ratio IC50,MGC-803 [7],6.45
same,IC50,PC-3 [8],12.5 µM
same,Ratio IC50,PC-3 [9],5.83
same,IC50,Bcap37 [10],15.7 µM
same,IC50,MGC-803 [11],11.3 µM
C=C(C)[C@@H]1CC[C@]2(COC(=O)c3ccccc3)CC[C@]3(C)[C@H](CC[C@@H]4[C@@]5(C)CC[C@H](OC(=O)c6ccccc6)C(C)(C)[C@@H]5CC[C@]43C)[C@@H]12,IC50,MCF7 [1],> 100 µM
same,IC50,A-375 [6],> 100 µM
same,IC50,PC-3 [8],> 100 µM
same,IC50,Bcap37 [10],> 100 µM
same,IC50,MGC-803 [11],> 100 µM
C=C(C)[C@@H]1CC[C@]2(COC(=O)c3ccccc3Cl)CC[C@]3(C)[C@H](CC[C@@H]4[C@@]5(C)CC[C@H](OC(=O)c6ccccc6Cl)C(C)(C)[C@@H]5CC[C@]43C)[C@@H]12,IC50,MCF7 [1],> 100 µM
same,IC50,A-375 [6],> 100 µM
same,IC50,PC-3 [8],> 100 µM
same,IC50,Bcap37 [10],> 100 µM
same,IC50,MGC-803 [11],> 100 µM
